# Columns and labels:
# Candida albicans [1] = experiment: Antifungal activity against Candida albicans by NCCLS method; type: functional
# Cryptococcus neoformans [2] = experiment: Antifungal activity against Cryptococcus neoformans by NCCLS method; type: functional
# Aspergillus fumigatus = experiment: Antifungal activity against Aspergillus fumigatus cgmcc 3.7795 by broth microdilution assay; type: functional
# Candida albicans [3] = experiment: Antifungal activity against Candida albicans ATCC SC5314 by broth microdilution assay; type: functional
# Candida albicans [4] = experiment: Antifungal activity against Candida albicans CPCC 400523 by broth microdilution assay; type: functional
# Cryptococcus neoformans [5] = experiment: Antifungal activity against Cryptococcus neoformans cgmcc 2.3161 by broth microdilution assay; type: functional
# Candida tropicalis = experiment: Antifungal activity against Candida tropicalis cgmcc 2.3739 by broth microdilution assay; type: functional
# Candida albicans [6] = experiment: Antifungal activity against fluconazole-resistant Candida albicans 103 by broth microdilution assay; type: functional
# Candida albicans [7] = experiment: Antifungal activity against fluconazole-resistant Candida albicans 100 by broth microdilution assay; type: functional
# [8] = molecular target: T1, Lanosterol 14-alpha demethylase (Candida albicans (strain SC5314 / ATCC MYA-2876) (Yeast), UniProt P10613); experiment: Inhibition of CYP51 in Candida albicans ATCC SC5314 assessed as eburicol composition of the total sterol fraction in membrane at 8 ug/ml after 16 hrs by GC-MS analysis relative to control; design: scale not given: the % may be the effect or the level left; conditions: candida albicans sc5314, 16 h
# T1 sequence (P10613 whole entry): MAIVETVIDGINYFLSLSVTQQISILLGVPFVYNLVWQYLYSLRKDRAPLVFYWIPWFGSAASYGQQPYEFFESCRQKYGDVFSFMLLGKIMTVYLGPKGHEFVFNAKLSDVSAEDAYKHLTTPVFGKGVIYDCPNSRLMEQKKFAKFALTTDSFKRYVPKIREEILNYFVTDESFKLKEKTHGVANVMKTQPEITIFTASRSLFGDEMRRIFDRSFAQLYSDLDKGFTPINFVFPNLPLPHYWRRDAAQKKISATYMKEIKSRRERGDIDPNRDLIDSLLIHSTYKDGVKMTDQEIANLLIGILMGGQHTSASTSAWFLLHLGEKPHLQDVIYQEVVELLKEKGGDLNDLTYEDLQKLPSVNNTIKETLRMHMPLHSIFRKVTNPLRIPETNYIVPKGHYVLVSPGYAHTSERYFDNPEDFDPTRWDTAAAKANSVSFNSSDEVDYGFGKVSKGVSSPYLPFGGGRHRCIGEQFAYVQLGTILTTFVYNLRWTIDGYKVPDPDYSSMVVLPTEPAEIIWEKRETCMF
# [9] = molecular target: T1, Lanosterol 14-alpha demethylase; experiment: Inhibition of CYP51 in Candida albicans ATCC SC5314 assessed as sterol composition in membrane at 8 ug/ml after 16 hrs by GC-MS analysis (reference value: 7.5%); design: scale not given: the % may be the effect or the level left; conditions: candida albicans sc5314, 16 h
# [10] = molecular target: T1, Lanosterol 14-alpha demethylase; experiment: Inhibition of CYP51 in Candida albicans ATCC SC5314 assessed as lanosterol composition of the total sterol fraction in membrane at 8 ug/ml after 16 hrs by GC-MS analysis (reference value: 2.9%); design: scale not given: the % may be the effect or the level left; conditions: candida albicans sc5314, 16 h
# [11] = molecular target: T1, Lanosterol 14-alpha demethylase; experiment: Inhibition of CYP51 in Candida albicans ATCC SC5314 assessed as ergosterol composition of the total sterol fraction in membrane at 8 ug/ml after 16 hrs by GC-MS analysis (reference value: 89.6%); design: scale not given: the % may be the effect or the level left; conditions: candida albicans sc5314, 16 h
# [12] = molecular target: T1, Lanosterol 14-alpha demethylase; experiment: Inhibition of CYP51 in Candida albicans ATCC SC5314 assessed as obtusifoliol composition of the total sterol fraction in membrane at 8 ug/ml after 16 hrs by GC-MS analysis relative to control; design: scale not given: the % may be the effect or the level left; conditions: candida albicans sc5314, 16 h
Structure (SMILES),MIC (Candida albicans [1]) [µg/mL],MIC (Cryptococcus neoformans [2]) [µg/mL],MIC (Aspergillus fumigatus) [µg/mL],MIC (Candida albicans [3]) [µg/mL],MIC (Candida albicans [4]) [µg/mL],MIC (Cryptococcus neoformans [5]) [µg/mL],MIC (Candida tropicalis) [µg/mL],MIC (Candida albicans [6]) [µg/mL],MIC (Candida albicans [7]) [µg/mL],Activity [8] [%],Activity [9] [%],Activity [10] [%],Activity [11] [%],Activity [12] [%]
COC(=O)[C@H](Cn1ccnc1)NC(=O)c1nc2ccccc2s1,8,2,,,,,,,,,,,,
COC(=O)[C@H](Cn1ccnc1)NC(=O)c1nc2ccc(Cl)cc2s1,,,> 64,8,16,32,8,,,,,,,
COc1ccc2nc(C(=O)N[C@@H](Cn3ccnc3)C(=O)OC(C)C)sc2c1,,,> 64,2,4,32,2,,,,,,,
CNC(=O)[C@H](Cn1ccnc1)NC(=O)c1nc2ccc(Br)cc2s1,,,> 64,> 64,> 64,> 64,> 64,,,,,,,
CC(C)OC(=O)[C@H](Cn1ccnc1)NC(=O)c1nc2ccc(Br)cc2s1,,,> 64,0.125,0.5,2,0.5,16,32,,,,,
CC(C)OC(=O)[C@@H](Cn1ccnc1)NC(=O)c1nc2ccc(Br)cc2s1,,,> 64,0.125,0.5,2,1,,,,,,,
CC(C)OC(=O)[C@H](Cn1ccnc1)NC(=O)c1nc2ccc(Cl)cc2s1,,,> 64,0.25,2,2,1,,,,,,,
CC(C)COC(=O)[C@H](Cn1ccnc1)NC(=O)c1nc2c(Cl)cccc2s1,,,> 64,> 64,> 64,> 64,> 64,,,,,,,
CCOC(=O)[C@H](Cn1ccnc1)NC(=O)c1nc2ccc(Cl)cc2s1,,,> 64,0.5,4,8,2,,,,,,,
CC(C)COC(=O)[C@H](Cn1ccnc1)NC(=O)c1nc2ccc(C(F)(F)F)cc2s1,,,> 64,0.125,2,0.5,0.5,32,32,,,,,
COc1ccc2nc(C(=O)N[C@@H](Cn3ccnc3)C(=O)OCC(C)C)sc2c1,,,> 64,2,4,8,1,,,,,,,
CC(C)OC(=O)[C@H](Cn1ccnc1)NC(=O)c1nc2ccc(C(F)(F)F)cc2s1,,,> 64,0.125,2,2,1,,,,,,,
OC(Cn1cncn1)(Cn1cncn1)c1ccc(F)cc1F [FLUCONAZOLE],,,> 64,0.5,1,4,1,> 64,> 64,67.9,4.8,18.3,2.1,6.9
CCC(C)n1ncn(-c2ccc(N3CCN(c4ccc(OCC5COC(Cn6cncn6)(c6ccc(Cl)cc6Cl)O5)cc4)CC3)cc2)c1=O (stereo not drawn) [ITRACONAZOLE],,,4,0.125,0.5,1,0.5,,,,,,,
